Biological target: T1, WT LRRK2 (Homo sapiens, UniProt Q5S007)
T1 construct: endogenous in cells; host or cells: HEK293 (endogenous LRRK2 gene knock-in tagged with HiBit; stably expressing CMV-driven firefly luciferase)
Assay: LRRK2 HiBit degradation assay (Nano-Glo Dual Luciferase) in HEK293 cells with HiBit-tagged endogenous LRRK2
Type: cell-based
Conditions: for Dmax: maximal degradation
Excerpt: Biological Assays Exemplary Assay for Testing LRRK2 Degradation Driven by Exemplary Hetero-Bifunctional Compounds Designed to Target LRRK2
The assay measures the degradation of LRRK2 in cells where the C-terminus (3′) of the endogenous gene has been tagged with a HiBit sequence in HEK293 cells. The cells also express firefly lucisferase, expressed from a Cytomegalovirus promoter and introduced into the HiBit tagged cells and stably expressed. The Nano-Glo® Dual Luciferase Reporter Assay System (Promega™, Madison, WI) was utilized.
Day 1—Preparation of Compound and Assay Plates. Two sets of plates were prepared: a triplicate set for the HiBit assay in white 384-well plates and a triplicate set of plate in black 384-well plates for the Alamar Blue cell viability assay. Briefly, the growth media (DMEM+Glutamax-10% fetal bovine serum-1% Penicillin-Streptomicin) from two T128 flasks was aspirated from the flasks. Cells were washed with Dulbecco's Phosphate Buffered Saline (dPBS) and aspirated. Trypsin (3 mL per flask) was added and the flasks were incubated for 2-3 minutes.
Ten mL of OptiMEM—10% fetal bovine-1% penicillin-streptomycin (hereinafter, “OptiMEM media”) was added to the flask and the cells and transferred to a 50 ml conical tube. A cell count (25 ul of cell into Effendorf vial+25 ul of Trypan Blue Stain) was performed and the cell density adjusted to 15,000 cell/45 μl/well (3.33×10^5/mL) in OptiMEM media.
Forty-five microliters of the cell suspension (15,000 cells) was aliquoted to each well of the white 384-well plate. The plates incubated at room temperature for 10 minutes before being placed in the 37° C.+5% CO2 incubator overnight
Day 2—Compound Treatment. Exemplary compounds were prepared at a 1 mM starting concentration and 1:3 serial dilution for 11 points CRC prepared and stored in the freezer. The Master Compound Plate was thawed overnight at room temperature. DMSO (20 μL) was added into column 24 of the Master Compound Plate for negative control and 20 μL of 300 μM of Compound 4 in column 23 as positive control.
Intermediate Compound Plate with 4% DMSO in OptiMEM Media. DMSO was added to warm OptiMEM media to achieve a 4% DMSO solution (approximately 50 mL/plate). One-hundred microliters of the OptiMEM-4% DMSO was aliquoted to each well of 384-Well Deep Well Microplates.
The Master Compound Plate and the Intermediate Compound Plate were spun down.
One microliter of compound from the Master Compound Plate was transferred into the Intermediate plate (a 1:100 dilution). The diluted mixture was mixed and 5 μL transferred into the assay plate (a 1:10 dilution) for the final starting concentration of 1 μM. The Treated Assay plates were incubated for 24 hours at 37° C.+5% CO2. The Master Compound Plate was sealed and store at room temperature for a second run that was performed within a week.
One set of white assay plates was warmed to room temperature (45 minute).
The One Glo luciferase mixture was prepared. The media from white 384-well assay plates was aspirated. Twenty-five μL of the One Glo luciferase mixture was added to each well of the assay plates. The plates were incubated on the bench (room temperature) for 45 minutes, including 10 minutes of shaking at 700 rpm. The luminescence of each plate was read on a plate reader.
1:100 DLR substrate and 1:100 LgBiT Protein dilution were added to the Promega Stop and Glo buffer and mixed just before addition to assay plates. Twenty-five microliters of Stop and Glo mixture was added to each well. Assay plates incubated for at least 45 minutes, including 10 minutes of shaking at 700 rpm. The luminescence of each plate was read on a plate reader.
Analysis of LRRK2 HiBit Screening assays. As mentioned above, plates were run in triplicate and the assay repeated twice (total of 6 replicate for exemplary compounds). For each treatment, measurements were taken for firefly luciferase for cell number, cell viability (Alamar Blue), and Nanoluc for the LRRK2-HiBit quantification. […]

[1] = HEK293, Table 2, HiBit-tagged LRRK2 in HEK293 cells, 24 hours treatment
[2] = Table 2, HiBit-tagged LRRK2 in HEK293 cells, 24 hours treatment, starting concentration 1 μM
[3] = HEK293, Table 3, comparison with direct comparators
[4] = Table 3, comparison with direct comparators, HiBit-tagged LRRK2 in HEK293 cells, 24 hours treatment

T1 sequence (Q5S007 whole entry): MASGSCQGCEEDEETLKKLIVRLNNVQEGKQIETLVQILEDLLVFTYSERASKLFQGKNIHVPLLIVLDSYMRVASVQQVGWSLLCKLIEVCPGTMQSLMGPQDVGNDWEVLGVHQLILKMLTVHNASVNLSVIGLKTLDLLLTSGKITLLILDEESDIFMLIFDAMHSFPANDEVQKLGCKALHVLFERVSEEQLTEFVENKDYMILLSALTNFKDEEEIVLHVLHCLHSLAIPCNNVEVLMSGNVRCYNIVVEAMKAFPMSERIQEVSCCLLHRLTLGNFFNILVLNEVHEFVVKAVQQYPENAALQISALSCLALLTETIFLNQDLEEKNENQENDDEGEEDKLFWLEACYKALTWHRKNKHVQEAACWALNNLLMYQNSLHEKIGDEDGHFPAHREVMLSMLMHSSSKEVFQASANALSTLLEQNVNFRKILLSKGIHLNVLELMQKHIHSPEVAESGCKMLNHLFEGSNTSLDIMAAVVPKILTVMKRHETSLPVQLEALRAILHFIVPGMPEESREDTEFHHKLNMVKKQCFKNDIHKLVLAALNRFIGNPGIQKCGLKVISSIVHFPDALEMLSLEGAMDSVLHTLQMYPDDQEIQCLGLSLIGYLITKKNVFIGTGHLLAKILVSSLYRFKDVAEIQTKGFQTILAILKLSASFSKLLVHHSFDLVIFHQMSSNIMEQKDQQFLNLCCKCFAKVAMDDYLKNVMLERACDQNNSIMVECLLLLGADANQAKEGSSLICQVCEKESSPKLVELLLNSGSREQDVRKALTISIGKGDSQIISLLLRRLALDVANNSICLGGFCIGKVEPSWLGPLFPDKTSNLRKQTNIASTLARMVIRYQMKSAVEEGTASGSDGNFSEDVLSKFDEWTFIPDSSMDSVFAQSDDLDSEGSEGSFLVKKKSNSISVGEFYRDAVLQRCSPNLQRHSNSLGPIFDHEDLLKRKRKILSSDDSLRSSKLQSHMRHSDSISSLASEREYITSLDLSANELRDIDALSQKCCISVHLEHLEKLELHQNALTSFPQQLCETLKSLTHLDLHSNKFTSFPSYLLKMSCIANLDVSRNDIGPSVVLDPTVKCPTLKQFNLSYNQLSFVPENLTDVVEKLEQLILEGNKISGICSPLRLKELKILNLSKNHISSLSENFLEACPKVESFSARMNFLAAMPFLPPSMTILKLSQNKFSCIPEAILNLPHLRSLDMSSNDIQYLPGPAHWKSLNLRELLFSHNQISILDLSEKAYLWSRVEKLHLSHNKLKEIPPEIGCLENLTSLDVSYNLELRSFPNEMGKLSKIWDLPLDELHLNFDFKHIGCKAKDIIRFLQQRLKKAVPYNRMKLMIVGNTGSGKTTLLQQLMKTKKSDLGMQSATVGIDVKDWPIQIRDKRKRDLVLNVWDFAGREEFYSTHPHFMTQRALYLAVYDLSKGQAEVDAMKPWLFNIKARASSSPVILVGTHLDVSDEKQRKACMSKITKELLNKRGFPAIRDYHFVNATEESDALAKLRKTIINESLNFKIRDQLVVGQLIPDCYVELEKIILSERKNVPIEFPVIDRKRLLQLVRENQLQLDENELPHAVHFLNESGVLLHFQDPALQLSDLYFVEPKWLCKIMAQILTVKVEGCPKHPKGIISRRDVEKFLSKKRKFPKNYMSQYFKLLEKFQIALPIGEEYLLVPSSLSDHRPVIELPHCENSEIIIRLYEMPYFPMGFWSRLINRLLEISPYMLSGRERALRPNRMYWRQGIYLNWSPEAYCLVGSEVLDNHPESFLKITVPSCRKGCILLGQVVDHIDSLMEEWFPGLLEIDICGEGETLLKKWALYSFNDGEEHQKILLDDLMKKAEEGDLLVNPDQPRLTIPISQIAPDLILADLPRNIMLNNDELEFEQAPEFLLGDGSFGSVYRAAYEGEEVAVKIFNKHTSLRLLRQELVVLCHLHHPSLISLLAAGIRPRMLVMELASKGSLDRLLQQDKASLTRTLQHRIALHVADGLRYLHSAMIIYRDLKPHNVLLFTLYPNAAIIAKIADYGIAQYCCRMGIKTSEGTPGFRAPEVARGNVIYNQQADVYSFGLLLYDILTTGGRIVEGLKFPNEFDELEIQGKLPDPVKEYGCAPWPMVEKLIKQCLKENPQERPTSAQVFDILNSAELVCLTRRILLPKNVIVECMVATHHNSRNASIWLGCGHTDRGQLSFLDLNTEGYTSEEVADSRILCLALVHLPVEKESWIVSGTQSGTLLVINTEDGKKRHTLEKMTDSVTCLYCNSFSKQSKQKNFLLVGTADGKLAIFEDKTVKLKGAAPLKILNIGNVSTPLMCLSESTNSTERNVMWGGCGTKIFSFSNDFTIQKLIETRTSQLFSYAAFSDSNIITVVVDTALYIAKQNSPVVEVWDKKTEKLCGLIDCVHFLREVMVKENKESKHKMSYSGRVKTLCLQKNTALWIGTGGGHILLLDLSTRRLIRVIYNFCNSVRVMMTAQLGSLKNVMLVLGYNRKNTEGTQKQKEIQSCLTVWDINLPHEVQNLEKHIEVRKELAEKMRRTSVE

Structure (SMILES)	Dmax [1]	DC50 [2]	Dmax [3]	DC50 [4]
COc1ccc2[nH]nc(-c3cc(N4CCN(C[C@H]5CC[C@H](OC6CCN(c7ccc8c(c7)n(C)c(=O)n8C7CCC(=O)NC7=O)CC6)CC5)CC4)ncn3)c2c1 (single isomer, unassigned) [Compound 60, rel-3-[3-methyl-2-oxo-5-(4-{[(1r,4r)-4-({4-[6-(5-methoxy-1H-indazol-3-yl)pyrimidin-4-yl]piperazin-1-yl}methyl)cyclohexyl]oxy}piperidin-1-yl)-2,3-dihydro-1H-1,3-benzodiazol-1-yl]piperidine-2,6-dione]	38%	0.67 nM		
CCOc1ccc2[nH]nc(-c3cc(N4CCN(C[C@H]5CC[C@H](OC6CCN(c7ccc8c(c7)n(C)c(=O)n8C7CCC(=O)NC7=O)CC6)CC5)CC4)ncn3)c2c1 (single isomer, unassigned) [Compound 61, rel-3-[3-methyl-2-oxo-5-(4-{[(1r,4r)-4-({4-[6-(5-ethoxy-1H-indazol-3-yl)pyrimidin-4-yl]piperazin-1-yl}methyl)cyclohexyl]oxy}piperidin-1-yl)-2,3-dihydro-1H-1,3-benzodiazol-1-yl]piperidine-2,6-dione]	48%	0.51 nM		
Cn1c(=O)n(C2CCC(=O)NC2=O)c2ccc(N3CCC(O[C@H]4CC[C@H](CN5CCN(c6cc(-c7n[nH]c8ccc(C9(C#N)CCC9)cc78)ncn6)CC5)CC4)CC3)cc21 (single isomer, unassigned) [Compound 62, rel-1-{3-[6-(4-{[(1r,4r)-4-({1-[1-(2,6-dioxopiperidin-3-yl)-3-methyl-2-oxo-2,3-dihydro-1H-1,3-benzodiazol-5-yl]piperidin-4-yl}oxy)cyclohexyl]methyl}piperazin-1-yl)pyrimidin-4-yl]-1H-indazol-5-yl}cyclobutane-1-carbonitrile]	54%	0.3 nM		
Cn1c(=O)n(C2CCC(=O)NC2=O)c2ccc(N3CCC(O[C@H]4CC[C@H](CN5CCN(c6cc(-c7n[nH]c8ccc(C9(C#N)CC9)cc78)ncn6)CC5)CC4)CC3)cc21 (single isomer, unassigned) [Compound 63, rel-1-{3-[6-(4-{[(1r,4r)-4-({1-[1-(2,6-dioxopiperidin-3-yl)-3-methyl-2-oxo-2,3-dihydro-1H-1,3-benzodiazol-5-yl]piperidin-4-yl}oxy)cyclohexyl]methyl}piperazin-1-yl)pyrimidin-4-yl]-1H-indazol-5-yl}cyclopropane-1-carbonitrile]	56%	0.13 nM		
Cn1c(=O)n(C2CCC(=O)NC2=O)c2ccc(N3CCC(O[C@H]4CC[C@H](CN5CCN(c6cc(-c7n[nH]c8ccc(C9(C#N)CC%10(CC%10)C9)cc78)ncn6)CC5)CC4)CC3)cc21 (single isomer, unassigned) [Compound 64, rel-5-{3-[6-(4-{[(1r,4r)-4-({1-[1-(2,6-dioxopiperidin-3-yl)-3-methyl-2-oxo-2,3-dihydro-1H-1,3-benzodiazol-5-yl]piperidin-4-yl}oxy)cyclohexyl]methyl}piperazin-1-yl)pyrimidin-4-yl]-1H-indazol-5-yl}spiro[2.3]hexane-5-carbonitrile]	63%	0.16 nM		
Cn1c(=O)n(C2CCC(=O)NC2=O)c2ccc(N3CCC(O[C@H]4CC[C@H](CN5CCN(c6cc(-c7n[nH]c8ccc([C@@]9(C#N)CC9%10CC%10)cc78)ncn6)CC5)CC4)CC3)cc21 (single isomer, unassigned) [Compound 65, (1R**)-1-{3-[6-(4-{[(1r*,4r*)-4-({1-[1-(2,6-dioxopiperidin-3-yl)-3-methyl-2-oxo-2,3-dihydro-1H-1,3-benzodiazol-5-yl]piperidin-4-yl}oxy)cyclohexyl]methyl}piperazin-1-yl)pyrimidin-4-yl]-1H-indazol-5-yl}spiro[2.2]pentane-1-carbonitrile]	64%	0.13 nM		
Cn1c(=O)n(C2CCC(=O)NC2=O)c2ccc(N3CCC(O[C@H]4CC[C@H](CN5CCN(c6cc(-c7n[nH]c8ccc([C@]9(C#N)CC9%10CC%10)cc78)ncn6)CC5)CC4)CC3)cc21 (single isomer, unassigned) [Compound 66, (1R**)-1-{3-[6-(4-{[(1r*,4r*)-4-({1-[1-(2,6-dioxopiperidin-3-yl)-3-methyl-2-oxo-2,3-dihydro-1H-1,3-benzodiazol-5-yl]piperidin-4-yl}oxy)cyclohexyl]methyl}piperazin-1-yl)pyrimidin-4-yl]-1H-indazol-5-yl}spiro[2.2]pentane-1-carbonitrile]	61%	0.14 nM		

Next, values leading:

Dmax [1]	DC50 [2]	Dmax [3]	DC50 [4]	Structure (SMILES)
41%	0.74 nM			CC(C)Oc1cc2c(-c3cc(N4CCN(C[C@H]5CC[C@H](OC6CCN(c7ccc8c(c7)n(C(C)C)c(=O)n8C7CCC(=O)NC7=O)CC6)CC5)CC4)ncn3)n[nH]c2cn1 (single isomer, unassigned) [Compound 59, rel-3-[2-oxo-3-(propan-2-yl)-5-(4-{[(1r,4r)-4-[(4-{6-[5-(propan-2-yloxy)-1H-pyrazolo[3,4-c]pyridin-3-yl]pyrimidin-4-yl}piperazin-1-yl)methyl]cyclohexyl]oxy}piperidin-1-yl)-2,3-dihydro-1H-1,3-benzodiazol-1-yl]piperidine-2,6-dione]
90%	5.9 nM			Cn1c(=O)n(C2CCC(=O)NC2=O)c2cc(Br)c(N3CCC(O[C@H]4CC[C@H](CN5CCN(c6cc(-c7n[nH]c8cnc(OC9(C)CC9)cc78)ncn6)CC5)CC4)CC3)cc21 (single isomer, unassigned) [Compound 67, rel-3-[6-bromo-3-methyl-2-oxo-5-(4-{[(1r,4r)-4-[(4-{6-[5-(1-methylcyclopropoxy)-1H-pyrazolo[3,4-c]pyridin-3-yl]pyrimidin-4-yl}piperazin-1-yl)methyl]cyclohexyl]oxy}piperidin-1-yl)-2,3-dihydro-1H-1,3-benzodiazol-1-yl]piperidine-2,6-dione]
		52%	5.6 nM	COc1c(N2CCC(O[C@H]3CC[C@H](CN4CCN(c5cc(-c6n[nH]c7cnc(OC8(C)CC8)cc67)ncn5)CC4)CC3)CC2)ccc2c1CN(C1CCC(=O)NC1=O)C2=O (stereo partly drawn) [Comparative Example 1, reference compound]
		62%	3 nM	COc1c(N2CCC(O[C@H]3CC[C@H](CN4CCN(c5cc(-c6[nH]nc7ccc(OC8(C)CC8)cc67)ncn5)CC4)CC3)CC2)ccc2c1CN(C1CCC(=O)NC1=O)C2=O (stereo partly drawn) [Comparative Example 2, reference compound]
		65%	4.3 nM	CC1(Oc2cc3c(-c4cc(N5CCN(C[C@H]6CC[C@H](OC7CCN(c8ccc9c(c8F)CN(C8CCC(=O)NC8=O)C9=O)CC7)CC6)CC5)ncn4)n[nH]c3cn2)CC1 (stereo partly drawn) [Comparative Example 3, reference compound]
		80%	0.79 nM	COc1c(N2CCC(CN3CCN(CC4CCN(c5cc(-c6n[nH]c7ccc(OC8(C)CC8)cc67)ncn5)CC4)CC3)CC2)ccc2c1CN(C1CCC(=O)NC1=O)C2=O (stereo not drawn) [Comparative Example 4, reference compound]
		65%	1.6 nM	COc1c(N2CCC(CN3CCN(CC4CCN(c5cc(-c6n[nH]c7ccc(OC8(C)CC8)cc67)ncn5)CC4)C(C)(C)C3)CC2)ccc2c1CN(C1CCC(=O)NC1=O)C2=O (stereo not drawn) [Comparative Example 5, reference compound]
		68%	1.7 nM	COc1c(N2CCC(CN3CCN(CC4CCN(c5cc(-c6n[nH]c7cnc(OC8(C)CC8)cc67)ncn5)CC4)C(C)(C)C3)CC2)ccc2c1CN(C1CCC(=O)NC1=O)C2=O (stereo not drawn) [Comparative Example 6, reference compound]

From patent US12589156B2, “Benzimidazole and benzimidazolone based protac compounds for the targeted degradation of leucine rich repeat kinase 2 (LRRK2)” (Arvinas Operations, Inc., priority 2023, dated 2026)
